Source: patent US6518282B1, “4-Arylpiperidine derivatives for the treatment of pruritus” (Pfizer Inc., priority 1999, dated 2003)

Tested on: hind leg scratching behaviour induced in rats by the administration of a known pruritogenic agent
Conditions: rats challenged s.c. with 5-methoxytryptamine hydrochloride (4 mg/3 mL/kg); test compound by subcutaneous injection in aqueous micelle formulation; scratching score totalled after 25 minutes vs control group
Protocol: The compounds of the invention are evaluated for their activity as antipruritic agents by measuring their ability to inhibit the hind leg scratching behaviour induced in rats by the administration of a known pruritogenic agent. […] The test is performed as follows:
Male Wistar rats (approximately 150 g body weight) are challenged with a pruritogen by subcutaneous injection of 5-methoxytryptamine hydrochloride (4 mg/3 mL/kg) dissolved in physiological saline into the scruff of the neck. At this dose a constant and quantifiable hindleg scratching response lasting up to 90 minutes is obtained.
The test compound is administered to the test animals by subcutaneous injection in an aqueous micelle formulation. The test compound is prepared in the following manner. […] The compounds can be administered pre- or post-challenge or may be administered at the same time as the pruritogenic challenge.
After the pruritogen challenge has been administered, hindleg scratching is scored for each animal by recording the presence or absence of scratching during each 30 second interval as 1 or 0 scored respectively. The score for each animal is totalled after 25 minutes (maximum score 50).

SMILES: CCOCCN1CC[C@@](C)(c2cccc(O)c2)[C@H](C)C1 (racemic) [Example 5]
- anti-pruritic activity: display anti-pruritic activity
